Results: US20260317324A1, “BIFUNCTIONAL COMPOUNDS FOR DEGRADING BRAF VIA UBIQUITIN PROTEOSOME PATHWAY” (Nurix Therapeutics, Inc., priority 2023, published 2026)

How the values were obtained:
Format in all cases: cell-based
BRAF G469A = target: T1, BRAF G469A (Homo sapiens, UniProt P15056, G469A); experiment: BRAF HiBiT degradation assay, C-terminal HiBiT-tagged BRAF G469A overexpressed in HCT-116 BRAF−/− cells (clone 34), Nano-Glo HiBiT Lytic assay
T1 construct: Horizon Discovery (HCT-116 BRAF−/− cells); host or cells: HCT-116 BRAF−/− cells, clone 34, lentiviral transduction
T1 sequence (P15056 whole entry G469A): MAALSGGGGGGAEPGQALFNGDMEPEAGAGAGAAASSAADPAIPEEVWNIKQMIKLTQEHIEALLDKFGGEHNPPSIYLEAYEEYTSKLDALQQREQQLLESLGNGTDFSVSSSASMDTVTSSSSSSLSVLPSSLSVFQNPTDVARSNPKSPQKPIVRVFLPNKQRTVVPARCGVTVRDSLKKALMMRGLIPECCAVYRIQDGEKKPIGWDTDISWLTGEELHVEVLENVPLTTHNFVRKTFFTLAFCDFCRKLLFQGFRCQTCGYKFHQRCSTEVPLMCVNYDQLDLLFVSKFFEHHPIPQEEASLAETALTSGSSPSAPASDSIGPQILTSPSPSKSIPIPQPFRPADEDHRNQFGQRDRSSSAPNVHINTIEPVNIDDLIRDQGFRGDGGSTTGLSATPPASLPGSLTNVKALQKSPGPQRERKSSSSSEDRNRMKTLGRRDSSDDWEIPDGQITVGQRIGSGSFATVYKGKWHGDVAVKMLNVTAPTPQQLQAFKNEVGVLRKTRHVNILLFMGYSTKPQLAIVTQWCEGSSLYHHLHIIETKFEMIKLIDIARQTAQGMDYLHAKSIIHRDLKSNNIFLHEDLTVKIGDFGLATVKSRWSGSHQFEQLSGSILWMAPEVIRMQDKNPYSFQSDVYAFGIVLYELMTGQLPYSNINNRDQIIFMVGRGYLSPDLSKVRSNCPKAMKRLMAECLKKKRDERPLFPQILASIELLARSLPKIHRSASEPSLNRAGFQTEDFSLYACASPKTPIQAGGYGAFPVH
Summary of the method: (§1)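 HCT-116 BRAF−/− cells stably expressing the tagged mutant were seeded at 3,000 cells/well and grown 24 h at 37 °C before an 11-point half-log series from 1 μM to 0.01 nM, run in duplicate at 0.2% DMSO. Lytic HiBiT luminescence gave % protein remaining versus DMSO controls; DC50 was the fitted concentration at 50%.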

BRAF G466V = target: T2, BRAF G466V (Homo sapiens, UniProt P15056, G466V); experiment: BRAF HiBiT degradation assay, C-terminal HiBiT-tagged BRAF G466V overexpressed in HCT-116 BRAF−/− cells (clone 8), Nano-Glo HiBiT Lytic assay
T2 construct: Horizon Discovery (HCT-116 BRAF−/− cells); host or cells: HCT-116 BRAF−/− cells, clone 8, lentiviral transduction
T2 sequence (P15056 whole entry G466V): as the sequence (P15056 whole entry G469A) above, with G466V, A469G counted along it
Summary of the method: as §1

BRAF D594G = target: T3, BRAF D594G (Homo sapiens, UniProt P15056, D594G); experiment: BRAF HiBiT degradation assay, C-terminal HiBiT-tagged BRAF D594G overexpressed in HCT-116 BRAF−/− cells (clone 63), Nano-Glo HiBiT Lytic assay
T3 construct: Horizon Discovery (HCT-116 BRAF−/− cells); host or cells: HCT-116 BRAF−/− cells, clone 63, lentiviral transduction
T3 sequence (P15056 whole entry D594G): as the sequence (P15056 whole entry G469A) above, with A469G, D594G counted along it
Summary of the method: as §1

BRAF V600E = target: T4, BRAF V600E (Homo sapiens, UniProt P15056, V600E); experiment: BRAF HiBiT degradation assay, C-terminal HiBiT-tagged BRAF V600E A375 cells (clone 1F10), Nano-Glo HiBiT Lytic assay; conditions: for Dmax: A-375
T4 construct: endogenous C-terminal HiBiT fusion tag on BRAF V600E allele; endogenous in cells; host or cells: A375 clone 1F10 (CRISPR-Cas9 knock-in of the HiBiT tag; parental A375 from ATCC)
T4 sequence (P15056 whole entry V600E, the tested form may be a part): as the sequence (P15056 whole entry G469A) above, with A469G, V600E counted along it
Summary of the method: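 A375 cells with CRISPR knock-in C-terminal HiBiT on endogenous BRAF V600E (clone 1F10) were seeded and cultured 24 h at 37 °C, then dosed with an 11-point half-log series (1 μM to 0.01 nM, duplicate, 0.2% DMSO). Lytic HiBiT luminescence gave % protein remaining; DC50 was the fitted concentration at 50%.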

[1] = Class 2, BRAF G469A, DC50 at 50%: fitted conc. at Y=50
[2] = HCT-116, Class 2, BRAF G469A, percentage protein degraded at maximal compound effect relative to DMSO
[3] = BRAF G466V, DC50 at 50%: fitted conc. at Y=50
[4] = HCT-116, BRAF G466V, percentage protein degraded at maximal compound effect relative to DMSO
[5] = BRAF D594G, DC50 at 50%: fitted conc. at Y=50
[6] = HCT-116, BRAF D594G, percentage protein degraded at maximal compound effect relative to DMSO
[7] = A375 (BRAF V600E), DC50 at 50%: fitted conc. at Y=50
[8] = A375 (BRAF V600E), percentage protein degraded at maximal compound effect relative to DMSO
[9] = BRAF G469A (Class 2), HCT-116 BRAF−/− cells, DC50 at 50% degradation
[10] = BRAF G469A (Class 2), HCT-116 BRAF−/− cells, observed Dmax relative to DMSO control
[11] = BRAF G466V (Class 3), HCT-116 BRAF−/− cells, DC50 at 50% degradation
[12] = BRAF G466V (Class 3), HCT-116 BRAF−/− cells, observed Dmax relative to DMSO control
[13] = BRAF D594G (Class 3), HCT-116 BRAF−/− cells, DC50 at 50% degradation
[14] = BRAF D594G (Class 3), HCT-116 BRAF−/− cells, observed Dmax relative to DMSO control
[15] = A375 (BRAF V600E, Class 1), DC50 at 50% degradation
[16] = A375 (BRAF V600E, Class 1), observed Dmax, % protein degraded relative to DMSO control

SMILES | DC50 (BRAF G469A; [1]) [nM] | Dmax (BRAF G469A; [2]) [%] | DC50 (BRAF G466V; [3]) [nM] | Dmax (BRAF G466V; [4]) [%] | DC50 (BRAF D594G; [5]) [nM] | Dmax (BRAF D594G; [6]) [%] | DC50 (BRAF V600E; [7]) [nM] | Dmax (BRAF V600E; [8]) [%] | DC50 (BRAF G469A; [9]) [nM] | Dmax (BRAF G469A; [10]) [%] | DC50 (BRAF G466V; [11]) [nM] | Dmax (BRAF G466V; [12]) [%] | DC50 (BRAF D594G; [13]) [nM] | Dmax (BRAF D594G; [14]) [%] | DC50 (BRAF V600E; [15]) [nM] | Dmax (BRAF V600E; [16]) [%]
CCCS(=O)(=O)Nc1cccc(-c2nc(C3CCN(C4CN(C(=O)CC5CCN(c6ccc(C7CCC(=O)NC7=O)cc6)CC5)C4)CC3)sc2-c2ccnc(N)n2)c1F (racemic) [Compound 215, Rac-N-{3-[5-(2-aminopyrimidin-4-yl)-2-(1-{1-[2-(1-{4-[(3R)-2,6-dioxopiperidin-3-yl]phenyl}piperidin-4-yl)acetyl]azetidin-3-yl}piperidin-4-yl)-1,3-thiazol-4-yl]-2-fluorophenyl}propane-1-sulfonamide] | > 500 | < 30 | > 500 | < 30 | > 500 | < 30 | 10 to 50 | > 70 |  |  |  |  |  |  |  | 
O=C1CCC(c2ccc(N3CCC(CN4CCN(c5ccc(-n6cc(-c7cc(Cl)cc(NS(=O)(=O)N8CCCC8)c7F)c(-c7ccncc7)n6)cc5)CC4)CC3)nc2)C(=O)N1 (racemic) [Compound 265, Rac-(R)—N-(5-chloro-3-(1-(4-(4-((1-(5-(2,6-dioxopiperidin-3-yl)pyridin-2-yl)piperidin-4-yl)methyl)piperazin-1-yl)phenyl)-3-(pyridin-4-yl)-1H-pyrazol-4-yl)-2-fluorophenyl)pyrrolidine-1-sulfonamide] |  |  |  |  |  |  |  |  | < 10 | > 70 | < 10 | > 70 | < 10 | > 70 | < 10 | > 70
O=C1CCC(c2ccc(N3CCC(CN4CCN(c5cnc(-n6cc(-c7cc(Cl)cc(NS(=O)(=O)N8CCCC8)c7F)c(-c7ccncc7)n6)nc5)CC4)CC3)nc2)C(=O)N1 (racemic) [Compound 359, Rac-N-{5-chloro-3-[1-(5-{4-[(1-{5-[(3R)-2,6-dioxopiperidin-3-yl]pyridin-2-yl}piperidin-4-yl)methyl]piperazin-1-yl}pyrimidin-2-yl)-3-(pyridin-4-yl)-1H-pyrazol-4-yl]-2-fluorophenyl}pyrrolidine-1-sulfonamide] |  |  |  |  |  |  |  |  | < 10 | > 70 | < 10 | > 70 | < 10 | > 70 | < 10 | > 70
O=C1CC[C@H](c2ccc(N3CCC(CN4CCN(c5ccc(-n6cc(-c7cc(Cl)cc(NS(=O)(=O)N8CC[C@@H](F)C8)c7F)c(-c7ccncc7)n6)c(F)c5)CC4)CC3)cc2)C(=O)N1 [Compound 336, (3R)—N-{5-chloro-3-[1-(4-{4-[(1-{4-[(3R)-2,6-dioxopiperidin-3-yl]phenyl}piperidin-4-yl)methyl]piperazin-1-yl}-2-fluorophenyl)-3-(pyridin-4-yl)-1H-pyrazol-4-yl]-2-fluorophenyl}-3-fluoropyrrolidine-1-sulfonamide] |  |  |  |  |  |  |  |  | 10 to 50 | > 70 | < 10 | > 70 | < 10 | > 70 | < 10 | > 70
CCN(C)S(=O)(=O)Nc1cccc(-c2nc(C(C)(C)C)sc2-c2ccnc(Nc3ccc(N4CCN(C(=O)[C@H]5CC[C@H](CN6CCc7cc(C8CCC(=O)NC8=O)ccc7C6)CC5)CC4)cn3)n2)c1F (mixture of isomers) [Compound 125, Rac-(3S)-3-(2-{[(1r,4r)-4-{4-[6-({4-[2-tert-butyl-4-(3-{[ethyl(methyl)sulfamoyl]amino}-2-fluorophenyl)-1,3-thiazol-5-yl]pyrimidin-2-yl}amino)pyridin-3-yl]piperazine-1-carbonyl}cyclohexyl]methyl}-1,2,3,4-tetrahydroisoquinolin-6-yl)piperidine-2,6-dione] | > 500 | 30 to 70 | > 500 | < 30 | > 500 | < 30 | 10 to 50 | > 70 |  |  |  |  |  |  |  | 
CCN(C)S(=O)(=O)Nc1cc(Cl)cc(-c2cn(-c3ccc(N4CCN(CC5CCN(c6ccc(N7CCC(=O)NC7=O)cn6)CC5)CC4)cn3)nc2-c2ccncc2)c1F [Compound 313, 1-(6-{4-[(4-{6-[4-(5-chloro-3-{[ethyl(methyl)sulfamoyl]amino}-2-fluorophenyl)-3-(pyridin-4-yl)-1H-pyrazol-1-yl]pyridin-3-yl}piperazin-1-yl)methyl]piperidin-1-yl}pyridin-3-yl)-1,3-diazinane-2,4-dione] |  |  |  |  |  |  |  |  | 50 to 500 | 30 to 70 | 10 to 50 | > 70 | < 10 | 30 to 70 | 10 to 50 | > 70
CCCS(=O)(=O)Nc1cccc(-c2nc(C3CCN(C(=O)C4CCN(C(=O)C5CCN(c6ccc(C7CCC(=O)NC7=O)cn6)CC5)CC4)CC3)sc2-c2ccncc2)c1F (racemic) [Compound 210, Rac-N-[3-(2-{1-[1-(1-{5-[(3R)-2,6-dioxopiperidin-3-yl]pyridin-2-yl}piperidine-4-carbonyl)piperidine-4-carbonyl]piperidin-4-yl}-5-(pyridin-4-yl)-1,3-thiazol-4-yl)-2-fluorophenyl]propane-1-sulfonamide] | 50 to 500 | 30 to 70 | < 10 | 30 to 70 | < 10 | 30 to 70 | < 10 | > 70 |  |  |  |  |  |  |  | 
CCCS(=O)(=O)Nc1cccc(-c2nc(C(C)(C)C)sc2-c2ccnc(Nc3ccc(N4CCN(C(=O)CC5CCN(c6ccc(NC7CCC(=O)NC7=O)cc6)CC5)CC4)c(F)c3)n2)c1F (racemic) [Compound 46, Rac-N-{3-[2-tert-butyl-5-(2-{[4-(4-{2-[1-(4-{[(3R)-2,6-dioxopiperidin-3-yl]amino}phenyl)piperidin-4-yl]acetyl}piperazin-1-yl)-3-fluorophenyl]amino}pyrimidin-4-yl)-1,3-thiazol-4-yl]-2-fluorophenyl}propane-1-sulfonamide] | > 500 | 30 to 70 | < 10 | 30 to 70 | 50 to 500 | 30 to 70 | < 10 | > 70 |  |  |  |  |  |  |  | 
O=C1CCC(c2ccc(N3CCC4(CC3)CC(CN3CCN(c5ccc(-n6cc(-c7cc(Cl)cc(NS(=O)(=O)N8CC[C@@H](F)C8)c7F)c(-c7ccncc7)n6)nc5)CC3)C4)cc2)C(=O)N1 (mixture of isomers) [Compound 298, (3R)—N-{5-chloro-3-[1-(5-{4-[(7-{4-[(3RS)-2,6-dioxopiperidin-3-yl]phenyl}-7-azaspiro[3.5]nonan-2-yl)methyl]piperazin-1-yl}pyridin-2-yl)-3-(pyridin-4-yl)-1H-pyrazol-4-yl]-2-fluorophenyl}-3-fluoropyrrolidine-1-sulfonamide] |  |  |  |  |  |  |  |  | > 500 | < 30 | > 500 | < 30 | > 500 | < 30 | 50 to 500 | 30 to 70
C[C@@H]1CN(c2ccc(-n3cc(-c4cc(Cl)cc(NS(=O)(=O)N5CC[C@@H](F)C5)c4F)c(-c4ccncc4)n3)cc2)CCN1CC1CCN(c2ccc(N3CCC(=O)NC3=O)cc2)CC1 [Compound 315, (3R)—N-[5-chloro-3-(1-{4-[(3R)-4-({1-[4-(2,4-dioxo-1,3-diazinan-1-yl)phenyl]piperidin-4-yl}methyl)-3-methylpiperazin-1-yl]phenyl}-3-(pyridin-4-yl)-1H-pyrazol-4-yl)-2-fluorophenyl]-3-fluoropyrrolidine-1-sulfonamide] |  |  |  |  |  |  |  |  | 10 to 50 | 30 to 70 | < 10 | > 70 | < 10 | 30 to 70 | < 10 | > 70
